Assay results taken from patent US9775844B2, “Heterocyclic compounds and uses thereof” (Infinity Pharmaceuticals, Inc., priority 2014, dated 2017).

Columns and labels:
PI3K β = PI3K β (Homo sapiens (Human), UniProt P42338); assay: PI3-Kinase Promega ADP-Glo Max assay; type: biochemical
PI3K α = PI3K α (Homo sapiens (Human), UniProt P42336); assay: PI3-Kinase Promega ADP-Glo Max assay; type: biochemical
[1] = biological target: PI3K-γ in RAW264.7 macrophages (Mus musculus (Mouse), UniProt Q9JHG7); assay: Raw264.7 p110 γ assay (PI3K-γ selective cellular assay, C5a-stimulated phospho-AKT); type: cell-based; settings: for IC50: phospho-AKT, read-out: Raw264.7 p110 γ assay IC50
Chain of PI3K-γ in RAW264.7 macrophages (Q9JHG7 whole entry): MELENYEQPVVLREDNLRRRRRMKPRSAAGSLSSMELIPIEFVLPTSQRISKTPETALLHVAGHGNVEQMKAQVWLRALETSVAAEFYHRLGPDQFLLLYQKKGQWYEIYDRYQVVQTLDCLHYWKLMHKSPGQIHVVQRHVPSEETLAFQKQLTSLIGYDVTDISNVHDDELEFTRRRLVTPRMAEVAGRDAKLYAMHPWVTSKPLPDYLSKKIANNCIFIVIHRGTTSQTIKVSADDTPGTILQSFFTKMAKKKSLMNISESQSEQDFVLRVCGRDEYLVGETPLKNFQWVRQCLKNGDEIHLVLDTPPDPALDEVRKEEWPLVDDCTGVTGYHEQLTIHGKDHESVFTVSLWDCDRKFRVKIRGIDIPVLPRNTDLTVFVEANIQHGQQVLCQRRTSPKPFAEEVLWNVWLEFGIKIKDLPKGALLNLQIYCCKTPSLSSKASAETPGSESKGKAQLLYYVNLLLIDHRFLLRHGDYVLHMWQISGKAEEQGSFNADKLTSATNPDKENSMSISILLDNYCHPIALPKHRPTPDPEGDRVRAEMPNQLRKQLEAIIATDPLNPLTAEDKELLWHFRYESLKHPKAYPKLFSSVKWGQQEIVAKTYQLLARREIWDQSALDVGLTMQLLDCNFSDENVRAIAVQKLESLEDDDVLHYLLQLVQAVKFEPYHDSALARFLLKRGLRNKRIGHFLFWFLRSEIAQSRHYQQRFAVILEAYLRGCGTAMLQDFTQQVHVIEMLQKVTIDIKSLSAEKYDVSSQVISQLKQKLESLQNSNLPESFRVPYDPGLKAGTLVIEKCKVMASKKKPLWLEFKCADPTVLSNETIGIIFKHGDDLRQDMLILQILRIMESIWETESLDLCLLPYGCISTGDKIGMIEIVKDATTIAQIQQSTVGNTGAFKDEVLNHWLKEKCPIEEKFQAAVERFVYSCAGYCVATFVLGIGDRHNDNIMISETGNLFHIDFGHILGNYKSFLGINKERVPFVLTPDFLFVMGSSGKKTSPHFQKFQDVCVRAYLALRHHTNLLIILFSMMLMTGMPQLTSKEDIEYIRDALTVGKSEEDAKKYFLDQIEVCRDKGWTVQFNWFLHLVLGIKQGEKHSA

PI3K γ = PI3K γ (Homo sapiens (Human), UniProt P48736); assay: PI3-Kinase Promega ADP-Glo Max assay; type: biochemical
PI3K δ = PI3K δ (Homo sapiens (Human), UniProt O00329); assay: PI3-Kinase Promega ADP-Glo Max assay; type: biochemical
Chain of PI3K δ (O00329 whole entry): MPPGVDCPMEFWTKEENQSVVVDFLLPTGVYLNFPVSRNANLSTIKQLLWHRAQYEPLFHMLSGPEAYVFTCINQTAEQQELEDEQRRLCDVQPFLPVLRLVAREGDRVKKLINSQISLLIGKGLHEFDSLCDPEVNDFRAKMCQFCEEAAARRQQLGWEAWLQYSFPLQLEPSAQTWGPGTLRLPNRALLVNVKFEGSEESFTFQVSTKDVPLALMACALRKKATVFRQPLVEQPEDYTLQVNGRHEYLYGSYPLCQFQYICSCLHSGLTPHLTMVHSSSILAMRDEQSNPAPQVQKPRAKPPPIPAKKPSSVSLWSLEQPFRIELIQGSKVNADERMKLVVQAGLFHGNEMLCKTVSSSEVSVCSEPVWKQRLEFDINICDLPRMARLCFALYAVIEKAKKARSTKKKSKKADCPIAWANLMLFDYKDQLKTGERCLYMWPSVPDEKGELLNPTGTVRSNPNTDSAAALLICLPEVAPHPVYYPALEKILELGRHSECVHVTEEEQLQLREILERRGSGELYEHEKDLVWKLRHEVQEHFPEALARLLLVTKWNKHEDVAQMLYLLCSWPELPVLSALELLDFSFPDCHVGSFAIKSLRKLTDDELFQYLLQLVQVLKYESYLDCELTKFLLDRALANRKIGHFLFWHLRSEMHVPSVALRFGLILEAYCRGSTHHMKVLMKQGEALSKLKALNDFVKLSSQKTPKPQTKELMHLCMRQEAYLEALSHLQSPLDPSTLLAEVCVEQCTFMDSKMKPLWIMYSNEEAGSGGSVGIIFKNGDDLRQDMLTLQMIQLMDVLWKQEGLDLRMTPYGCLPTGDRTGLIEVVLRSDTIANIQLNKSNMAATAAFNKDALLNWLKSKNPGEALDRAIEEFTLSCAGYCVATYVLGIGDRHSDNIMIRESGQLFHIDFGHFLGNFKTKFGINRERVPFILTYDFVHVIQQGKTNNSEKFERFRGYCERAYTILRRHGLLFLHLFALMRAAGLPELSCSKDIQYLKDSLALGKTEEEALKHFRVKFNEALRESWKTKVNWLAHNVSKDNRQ
Chain of PI3K δ (P27986 whole entry partner): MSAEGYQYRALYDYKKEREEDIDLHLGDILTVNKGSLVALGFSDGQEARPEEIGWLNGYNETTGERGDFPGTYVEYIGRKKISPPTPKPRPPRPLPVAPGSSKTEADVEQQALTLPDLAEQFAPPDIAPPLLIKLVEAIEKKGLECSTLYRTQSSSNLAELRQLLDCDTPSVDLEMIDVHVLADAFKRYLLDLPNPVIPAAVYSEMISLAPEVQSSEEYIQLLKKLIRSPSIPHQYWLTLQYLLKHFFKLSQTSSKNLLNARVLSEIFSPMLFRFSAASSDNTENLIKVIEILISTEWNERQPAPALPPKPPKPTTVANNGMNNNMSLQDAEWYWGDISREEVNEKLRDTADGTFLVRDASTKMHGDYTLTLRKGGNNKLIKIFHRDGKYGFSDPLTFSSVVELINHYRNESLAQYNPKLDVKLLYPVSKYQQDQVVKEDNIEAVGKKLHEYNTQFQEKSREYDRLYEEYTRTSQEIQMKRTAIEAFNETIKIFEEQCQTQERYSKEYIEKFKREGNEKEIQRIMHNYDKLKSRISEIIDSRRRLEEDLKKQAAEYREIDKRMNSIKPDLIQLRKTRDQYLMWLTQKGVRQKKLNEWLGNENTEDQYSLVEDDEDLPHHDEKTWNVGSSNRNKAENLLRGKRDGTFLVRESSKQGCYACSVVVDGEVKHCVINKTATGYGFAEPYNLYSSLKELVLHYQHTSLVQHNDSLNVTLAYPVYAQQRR

PI3K-δ in RAJI cells = PI3K-δ in RAJI cells (Homo sapiens (Human), UniProt O00329); assay: RAJI p110 δ assay (PI3K-δ selective cellular assay, phospho-AKT); type: cell-based; settings: phospho-AKT; read-out: RAJI p110 δ assay IC50

Chain of PI3K α (P42336 whole entry): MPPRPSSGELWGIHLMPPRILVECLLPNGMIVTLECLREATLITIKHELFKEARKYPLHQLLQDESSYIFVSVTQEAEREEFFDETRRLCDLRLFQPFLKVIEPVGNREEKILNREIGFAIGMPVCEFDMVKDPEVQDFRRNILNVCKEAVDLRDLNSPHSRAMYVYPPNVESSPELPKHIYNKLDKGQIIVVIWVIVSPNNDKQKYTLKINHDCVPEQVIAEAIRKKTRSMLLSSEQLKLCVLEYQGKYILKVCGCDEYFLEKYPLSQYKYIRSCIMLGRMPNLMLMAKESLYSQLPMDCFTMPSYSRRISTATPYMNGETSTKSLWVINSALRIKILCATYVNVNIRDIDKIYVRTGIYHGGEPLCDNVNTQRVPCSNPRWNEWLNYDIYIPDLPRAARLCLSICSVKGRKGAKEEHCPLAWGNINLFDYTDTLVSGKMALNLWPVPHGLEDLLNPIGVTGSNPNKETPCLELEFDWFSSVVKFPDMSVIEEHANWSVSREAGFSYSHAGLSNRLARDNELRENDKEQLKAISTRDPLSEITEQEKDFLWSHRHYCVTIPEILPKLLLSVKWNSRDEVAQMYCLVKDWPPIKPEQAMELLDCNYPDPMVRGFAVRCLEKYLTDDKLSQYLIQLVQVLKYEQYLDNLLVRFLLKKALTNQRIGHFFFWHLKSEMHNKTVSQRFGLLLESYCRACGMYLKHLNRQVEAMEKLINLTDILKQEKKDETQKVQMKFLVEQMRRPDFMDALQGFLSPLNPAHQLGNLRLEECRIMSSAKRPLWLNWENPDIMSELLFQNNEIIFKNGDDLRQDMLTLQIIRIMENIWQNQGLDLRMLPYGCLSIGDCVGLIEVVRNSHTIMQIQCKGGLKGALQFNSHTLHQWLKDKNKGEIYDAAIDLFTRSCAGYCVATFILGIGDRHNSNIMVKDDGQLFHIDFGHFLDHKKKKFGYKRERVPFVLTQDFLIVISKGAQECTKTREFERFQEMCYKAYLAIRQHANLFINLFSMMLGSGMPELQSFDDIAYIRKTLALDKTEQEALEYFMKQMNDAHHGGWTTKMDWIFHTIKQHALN
Chain of PI3K α (P27986 whole entry partner): as the sequence (P27986 whole entry partner) above
Chain of PI3K β (P42338 whole entry): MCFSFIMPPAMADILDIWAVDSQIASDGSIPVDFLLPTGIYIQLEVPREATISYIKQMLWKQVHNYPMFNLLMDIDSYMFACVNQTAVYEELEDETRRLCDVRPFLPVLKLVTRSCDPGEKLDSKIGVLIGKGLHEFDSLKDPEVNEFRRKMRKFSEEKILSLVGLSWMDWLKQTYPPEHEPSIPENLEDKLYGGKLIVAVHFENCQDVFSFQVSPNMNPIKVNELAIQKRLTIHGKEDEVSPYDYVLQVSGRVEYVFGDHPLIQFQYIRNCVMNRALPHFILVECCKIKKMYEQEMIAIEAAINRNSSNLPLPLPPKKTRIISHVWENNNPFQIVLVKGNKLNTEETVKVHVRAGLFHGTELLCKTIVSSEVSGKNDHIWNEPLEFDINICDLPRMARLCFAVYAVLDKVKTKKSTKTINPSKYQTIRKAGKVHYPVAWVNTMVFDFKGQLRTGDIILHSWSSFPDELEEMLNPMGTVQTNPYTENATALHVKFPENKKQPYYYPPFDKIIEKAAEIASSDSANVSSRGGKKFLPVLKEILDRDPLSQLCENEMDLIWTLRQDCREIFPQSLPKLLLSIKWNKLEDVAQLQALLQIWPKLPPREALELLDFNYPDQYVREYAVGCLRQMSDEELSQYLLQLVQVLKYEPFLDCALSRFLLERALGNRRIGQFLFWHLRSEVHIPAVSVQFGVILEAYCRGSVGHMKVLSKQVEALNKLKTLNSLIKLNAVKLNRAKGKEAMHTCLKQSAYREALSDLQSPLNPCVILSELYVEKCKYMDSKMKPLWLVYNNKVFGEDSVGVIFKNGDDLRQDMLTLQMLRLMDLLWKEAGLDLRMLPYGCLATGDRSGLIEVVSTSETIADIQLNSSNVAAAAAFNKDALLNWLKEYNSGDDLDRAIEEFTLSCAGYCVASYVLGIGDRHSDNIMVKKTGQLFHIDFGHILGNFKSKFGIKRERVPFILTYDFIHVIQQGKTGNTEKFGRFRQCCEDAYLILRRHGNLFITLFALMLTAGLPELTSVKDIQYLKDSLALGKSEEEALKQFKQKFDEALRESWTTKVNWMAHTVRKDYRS
Chain of PI3K β (P27986 whole entry partner): as the sequence (P27986 whole entry partner) above

Row | SMILES | IC50 (PI3K β) | IC50 (PI3K α) | RAJIδ/Raw264.7 γ IC50 (selectivity) [1] | IC50 [1] | IC50 (PI3K γ) | PI3K δ/PI3K γ IC50 (selectivity) (PI3K γ) | IC50 (PI3K δ) | IC50 (PI3K-δ in RAJI cells)
1 | CC#Cc1cccc2nc([C@H](C)NC(=O)c3c(N)nn4cccnc34)n(-c3ccccc3)c(=O)c12 [Compound 1] | 1 to 5 µM | 5 to 10 µM | X (X = 10 to <50) | 1 to 50 nM | 1 to 100 nM | X (X = 10 to <50) | 0.5 to 1 µM | 1 to 100 nM
2 | C[C@H](NC(=O)c1c(N)nn2cccnc12)c1cc2cccc(C#CC(C)(C)C)c2c(=O)n1-c1ccccc1 [Compound 3] | 5 to 10 µM | 5 to 10 µM | X (X = 10 to <50) | 50 to 100 nM | 1000 to 5000 nM | W (W = >1 to <10) | 5 to 10 µM | 1000 to 10000 nM
3 | C[C@H](NC(=O)c1c(N)nn2cccnc12)c1cc2cccc(C#Cc3cncn3C)c2c(=O)n1-c1ccccc1 [Compound 7] | 5 to 10 µM | 5 to 10 µM | Y (Y = 50 to <850) | 1 to 50 nM | 100 to 500 nM | Y (Y = 50 to <850) | 5 to 10 µM | 500 to 1000 nM
4 | C[C@H](NC(=O)c1c(N)nn2cccnc12)c1cc2cccc(C#CC3CC3)c2c(=O)n1-c1ccccc1 [Compound 9] | 1 to 5 µM | 1 to 5 µM | Y (Y = 50 to <850) | 1 to 50 nM | 100 to 500 nM | X (X = 10 to <50) | 1 to 5 µM | 100 to 500 nM
5 | C[C@H](NC(=O)c1c(N)nn2cccnc12)c1cc2cccc(C#CCN3CCOCC3)c2c(=O)n1-c1ccccc1 [Compound 10] | 5 to 10 µM | 5 to 10 µM | X (X = 10 to <50) | 1 to 50 nM | 100 to 500 nM | X (X = 10 to <50) | 5 to 10 µM | 1000 to 10000 nM
6 | C[C@H](NC(=O)c1c(N)nn2cccnc12)c1nc2cccc(C#Cc3cnn(C)c3)c2c(=O)n1-c1ccccc1 [Compound 21] | 5 to 10 µM | 5 to 10 µM |  |  |  |  | 5 to 10 µM | 100 to 500 nM
7 | C[C@H](NC(=O)c1c(N)nn2cccnc12)c1cc2cccc(C#Cc3cnn(C)c3)c2c(=O)n1C1CC1 [Compound 25] | 1 to 5 µM | 1 to 5 µM |  | 1 to 50 nM |  |  | 5 to 10 µM | 100 to 500 nM
8 | COc1cnc(C(=O)N[C@@H](C)c2cc3cccc(C#Cc4cnn(C)c4)c3c(=O)n2-c2ccccc2)c(N)n1 [Compound 71] | 5 to 10 µM | 5 to 10 µM |  |  | > 5000 nM | V (V = 0.1 to 1) | 5 to 10 µM | 1000 to 10000 nM
9 | CC(C)n1c([C@H](C)NC(=O)c2c(N)nn3cccnc23)cc2cccc(C#Cc3cnn(C)c3)c2c1=O [Compound 103] | 5 to 10 µM | 5 to 10 µM |  |  | 500 to 1000 nM | X (X = 10 to <50) | 5 to 10 µM | 
10 | C[C@H](NC(=O)c1c(N)nn2cccnc12)c1cc2cccc(C#Cc3cnn(C)c3)c2c(=O)n1CCS(=O)(=O)N(C)C [Compound 104] | 1 to 5 µM | 1 to 5 µM |  |  | 1 to 100 nM | Y (Y = 50 to <850) | 5 to 10 µM | 
11 | Cc1cc(C)n2nc(N)c(C(=O)N[C@@H](C)c3cc4cccc(C#Cc5cnn(C)c5)c4c(=O)n3-c3ccccc3)c2n1 [Compound 108] | 5 to 10 µM | 5 to 10 µM |  |  | 100 to 500 nM | X (X = 10 to <50) | 5 to 10 µM | 

The next lines start with the values.

Row | IC50 (PI3K β) | IC50 (PI3K α) | RAJIδ/Raw264.7 γ IC50 (selectivity) [1] | IC50 [1] | IC50 (PI3K γ) | PI3K δ/PI3K γ IC50 (selectivity) (PI3K γ) | IC50 (PI3K δ) | IC50 (PI3K-δ in RAJI cells) | SMILES
12 | 5 to 10 µM | 5 to 10 µM | Y (Y = 50 to <850) | 1 to 50 nM | 500 to 1000 nM | X (X = 10 to <50) | 5 to 10 µM | 500 to 1000 nM | CC(C)C#Cc1cccc2cc([C@H](C)NC(=O)c3c(N)nn4cccnc34)n(-c3ccccc3)c(=O)c12 [Compound 2]
13 | 5 to 10 µM | 5 to 10 µM | W (W = >1 to <10) | 1 to 50 nM | 1000 to 5000 nM | V (V = 0.1 to 1) | 0.001 to 0.5 µM | 1 to 100 nM | C[C@H](NC(=O)c1c(N)nn2cccnc12)c1cc2cccc(C#Cc3ccccc3)c2c(=O)n1-c1ccccc1 [Compound 5]
14 | 5 to 10 µM | 5 to 10 µM | X (X = 10 to <50) | 1 to 50 nM | 100 to 500 nM | Y (Y = 50 to <850) | 5 to 10 µM | 500 to 1000 nM | COc1ccc(C#Cc2cccc3cc([C@H](C)NC(=O)c4c(N)nn5cccnc45)n(-c4ccccc4)c(=O)c23)cn1 [Compound 6]
15 | 5 to 10 µM | 5 to 10 µM | W (W = >1 to <10) | 100 to 10000 nM | 500 to 1000 nM | X (X = 10 to <50) | 5 to 10 µM | 1000 to 10000 nM | C[C@H](NC(=O)c1c(N)nn2cccnc12)c1cc2cccc(C#CC(C)(C)N)c2c(=O)n1-c1ccccc1 [Compound 8]
16 | 5 to 10 µM | 5 to 10 µM | X (X = 10 to <50) | 50 to 100 nM | 100 to 500 nM | X (X = 10 to <50) | 5 to 10 µM | 1000 to 10000 nM | C[C@H](NC(=O)c1c(N)nn2cccnc12)c1cc2cccc(C#CC(C)(C)O)c2c(=O)n1-c1ccccc1 [Compound 11]
17 | 1 to 5 µM | 5 to 10 µM | X (X = 10 to <50) | 1 to 50 nM | 1 to 100 nM | X (X = 10 to <50) | 1 to 5 µM | 100 to 500 nM | COCC#Cc1cccc2cc([C@H](C)NC(=O)c3c(N)nn4cccnc34)n(-c3ccccc3)c(=O)c12 [Compound 12]
18 | 1 to 5 µM | 5 to 10 µM | W (W = >1 to <10) | 1 to 50 nM | 1 to 100 nM | X (X = 10 to <50) | 0.5 to 1 µM | 1 to 100 nM | C[C@H](NC(=O)c1c(N)nn2cccnc12)c1cc2cccc(C#CCO)c2c(=O)n1-c1ccccc1 [Compound 13]
19 | 1 to 5 µM | 1 to 5 µM | W (W = >1 to <10) | 1 to 50 nM | 1 to 100 nM | X (X = 10 to <50) | 0.001 to 0.5 µM | 1 to 100 nM | C[C@H](NC(=O)c1c(N)nn2cccnc12)c1cc2cccc(C#CCN3CCCC3=O)c2c(=O)n1-c1ccccc1 [Compound 14]
20 | 5 to 10 µM | 5 to 10 µM | W (W = >1 to <10) | 1 to 50 nM | 1 to 100 nM | X (X = 10 to <50) | 0.5 to 1 µM | 100 to 500 nM | C[C@H](NC(=O)c1c(N)nn2cccnc12)c1cc2cccc(C#C[C@@H](C)O)c2c(=O)n1-c1ccccc1 [Compound 15]
21 | 1 to 5 µM | 5 to 10 µM | X (X = 10 to <50) | 1 to 50 nM | 1 to 100 nM | Y (Y = 50 to <850) | 1 to 5 µM | 100 to 500 nM | C[C@H](O)C#Cc1cccc2cc([C@H](C)NC(=O)c3c(N)nn4cccnc34)n(-c3ccccc3)c(=O)c12 [Compound 16]
22 | 5 to 10 µM | 5 to 10 µM | Y (Y = 50 to <850) | 1 to 50 nM | 100 to 500 nM | Y (Y = 50 to <850) | 5 to 10 µM | 100 to 500 nM | C[C@H](NC(=O)c1c(N)nn2cccnc12)c1cc2cccc(C#Cc3cccnc3)c2c(=O)n1-c1ccccc1 [Compound 17]
23 | 5 to 10 µM | 5 to 10 µM | X (X = 10 to <50) | 1 to 50 nM | 100 to 500 nM | Y (Y = 50 to <850) | 5 to 10 µM | 100 to 500 nM | COc1ncc(C#Cc2cccc3cc([C@H](C)NC(=O)c4c(N)nn5cccnc45)n(-c4ccccc4)c(=O)c23)cn1 [Compound 18]
24 | 5 to 10 µM | 5 to 10 µM |  |  | 100 to 500 nM | X (X = 10 to <50) | 5 to 10 µM |  | Cc1ccnc2c(C(=O)N[C@@H](C)c3cc4cccc(C#Cc5cnn(C)c5)c4c(=O)n3-c3ccccc3)c(N)nn12 [Compound 102]
25 | 5 to 10 µM | 1 to 5 µM |  |  | 1 to 100 nM | Y (Y = 50 to <850) | 5 to 10 µM |  | CC[C@H](NC(=O)c1c(N)nn2cccnc12)c1cc2cccc(C#Cc3cnn(C)c3)c2c(=O)n1-c1ccccc1 [Compound 105]
26 | 1 to 5 µM | 5 to 10 µM |  |  | 1 to 100 nM | Y (Y = 50 to <850) | 5 to 10 µM |  | Cc1ccn2nc(N)c(C(=O)N[C@@H](C)c3cc4cccc(C#Cc5cnn(C)c5)c4c(=O)n3-c3ccccc3)c2n1 [Compound 106]
27 | 5 to 10 µM | 5 to 10 µM |  |  | 1000 to 5000 nM | X (X = 10 to <50) | 5 to 10 µM |  | Cn1cc(C#Cc2cccc3cc(CNC(=O)c4c(N)nn5cccnc45)n(-c4ccccc4)c(=O)c23)cn1 [Compound 107]
28 | 1 to 5 µM | 5 to 10 µM |  |  | 1 to 100 nM | X (X = 10 to <50) | 1 to 5 µM |  | C[C@H](NC(=O)c1c(N)nn2cccnc12)c1cc2cccc(N)c2c(=O)n1-c1ccccc1 [Compound 109, (S)-2-amino-N-(1-(8-amino-1-oxo-2-phenyl-1,2-dihydroisoquinolin-3-yl)ethyl)pyrazolo[1,5-a]pyrimidine-3-carboxamide]
